Test results published in publication PMC6979384, “Characterization of the plant homeodomain (PHD) reader family for their histone tail interactions” (Epigenetics & Chromatin, 2020).

How the values were obtained:
Experiment in all cases: Histone peptide microarray
Assay type in all cases: binding, human
Settings in all cases: total n = 4
KDM5B (3) = system: KDM5B (3)
Procedure, shortened: (§1)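 Mean ± SD of 4 replicate array intensities; GST-PHD finger at 0.5 μM against 293 PTM-bearing histone peptides.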

TAF3 = system: TAF3
Procedure, shortened: as §1

TRIM66 (PB) = system: TRIM66 (PB)
Procedure, shortened: as §1

PHF13 = system: PHF13
Procedure, shortened: as §1

AIRE (PP) = system: AIRE (PP)
Procedure, shortened: as §1

ING4 = system: ING4
Procedure, shortened: as §1

KDM5A (3) = system: KDM5A (3)
Procedure, shortened: as §1

BPTF (PB) = system: BPTF (PB)
Procedure, shortened: as §1

BAZ2B = system: BAZ2B
Procedure, shortened: as §1

PHRF1 (RP) = system: PHRF1 (RP)
Procedure, shortened: as §1

PHF2 = system: PHF2
Procedure, shortened: as §1

MLL5 = system: MLL5
Procedure, shortened: as §1

ING1 = system: ING1
Procedure, shortened: as §1

ING2 = system: ING2
Procedure, shortened: as §1

KDM5B (1) = system: KDM5B (1)
Procedure, shortened: as §1

CHD5 (PCC) = system: CHD5 (PCC)
Procedure, shortened: as §1

PHF21A = system: PHF21A
Procedure, shortened: as §1

CHD4 (PPCC) = system: CHD4 (PPCC)
Procedure, shortened: as §1

SP140L = system: SP140L
Procedure, shortened: as §1

DIDO1 = system: DIDO1
Procedure, shortened: as §1

KDM7A = system: KDM7A
Procedure, shortened: as §1

RAG2 = system: RAG2
Procedure, shortened: as §1

DPF2 (PPC2W2) = system: DPF2 (PPC2W2)
Procedure, shortened: as §1

KDM4C (TTP) = system: KDM4C (TTP)
Procedure, shortened: as §1

PHF23 = system: PHF23
Procedure, shortened: as §1

ING3 = system: ING3
Procedure, shortened: as §1

MORC3 (CW) = system: MORC3 (CW)
Procedure, shortened: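 Purified PHD finger domains fused to GST are screened against 293 synthetic histone peptides bearing one or several post-translational modifications. The protein is used at 0.5 μM, and the signal from four replicate arrays is averaged, with standard deviation given.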

CHD5 (PPCC) = system: CHD5 (PPCC)
Procedure, shortened: as §1

PHF8 = system: PHF8
Procedure, shortened: as §1

ING5 = system: ING5
Procedure, shortened: as §1

KDM5A (1) = system: KDM5A (1)
Procedure, shortened: as §1

[1] = sheet "Array Heatmap", GST-tagged reader, histone peptide array

For H3K18ac (1-25): H3 1-25, the “Array Heatmap signal, KDM5B (3)” value (KDM5B (3); [1]) was 0.5812, the “Array Heatmap signal, TAF3” value (TAF3; [1]) was 0.3651 and the “Array Heatmap signal, TRIM66 (PB)” value (TRIM66 (PB); [1]) was 0.788. The “Array Heatmap signal, PHF13” value (PHF13; [1]) was 0.7117, the “Array Heatmap signal, AIRE (PP)” value (AIRE (PP); [1]) was 0.502 and the “Array Heatmap signal, ING4” value (ING4; [1]) was 0.5434. For the same substance, the “Array Heatmap signal, KDM5A (3)” value (KDM5A (3); [1]) was 0.7204, the “Array Heatmap signal, BPTF (PB)” value (BPTF (PB); [1]) was 0.4168 and the “Array Heatmap signal, BAZ2B” value (BAZ2B; [1]) was 0.5309. The “Array Heatmap signal, PHRF1 (RP)” value (PHRF1 (RP); [1]) was 0.8108, the “Array Heatmap signal, PHF2” value (PHF2; [1]) was 0.6849 and the “Array Heatmap signal, MLL5” value (MLL5; [1]) was 0.6155. The “Array Heatmap signal, ING1” value (ING1; [1]) was 0.6071, the “Array Heatmap signal, ING2” value (ING2; [1]) was 0.65 and the “Array Heatmap signal, KDM5B (1)” value (KDM5B (1); [1]) was 0.7576. The “Array Heatmap signal, CHD5 (PCC)” value (CHD5 (PCC); [1]) was 0.844, the “Array Heatmap signal, PHF21A” value (PHF21A; [1]) was 0.5491 and the “Array Heatmap signal, CHD4 (PPCC)” value (CHD4 (PPCC); [1]) was 0.699. For the same substance, the “Array Heatmap signal, SP140L” value (SP140L; [1]) was 0.3993, the “Array Heatmap signal, DIDO1” value (DIDO1; [1]) was 0.8263 and the “Array Heatmap signal, KDM7A” value (KDM7A; [1]) was 0.4088. For the same substance, the “Array Heatmap signal, RAG2” value (RAG2; [1]) was 0.3351, the “Array Heatmap signal, DPF2 (PPC2W2)” value (DPF2 (PPC2W2); [1]) was 0.8287 and the “Array Heatmap signal, KDM4C (TTP)” value (KDM4C (TTP); [1]) was 0.575. For the same substance, the “Array Heatmap signal, PHF23” value (PHF23; [1]) was 0.5923, the “Array Heatmap signal, ING3” value (ING3; [1]) was 0.5765 and the “Array Heatmap signal, MORC3 (CW)” value (MORC3 (CW); [1]) was 0.6771. For the same substance, the “Array Heatmap signal, CHD5 (PPCC)” value (CHD5 (PPCC); [1]) was 0.6616, the “Array Heatmap signal, PHF8” value (PHF8; [1]) was 0.4195 and the “Array Heatmap signal, ING5” value (ING5; [1]) was 0.4305. The “Array Heatmap signal, KDM5A (1)” value (KDM5A (1); [1]) was 0.5632.

For H3K18ac (1-32): H3 1-32, the “Array Heatmap value (peptide array signal)” value (“Array Heatmap value” below) (KDM5B (3); KDM5B (3), sheet "Array Heatmap", each array performed twice) was 0.448, the “Array Heatmap value” value (TAF3; TAF3, sheet "Array Heatmap", each array performed twice) was 0.2816 and the “Array Heatmap value” value (TRIM66 (PB); TRIM66 (PB), sheet "Array Heatmap", each array performed twice) was 0.5982. For the same substance, the “Array Heatmap value” value (PHF13; PHF13, sheet "Array Heatmap", each array performed twice) was 0.586, the “Array Heatmap value” value (AIRE (PP); AIRE (PP), sheet "Array Heatmap", each array performed twice) was 0.5458 and the “Array Heatmap value” value (ING4; ING4, sheet "Array Heatmap", each array performed twice) was 0.4589. For the same substance, the “Array Heatmap value” value (KDM5A (3); KDM5A (3), sheet "Array Heatmap", each array performed twice) was 0.5027, the “Array Heatmap value” value (BPTF (PB); BPTF (PB), sheet "Array Heatmap", each array performed twice) was 0.3434 and the “Array Heatmap value” value (BAZ2B; BAZ2B, sheet "Array Heatmap", each array performed twice) was 0.4901. The “Array Heatmap value” value (PHRF1 (RP); PHRF1 (RP), sheet "Array Heatmap", each array performed twice) was 0.6228, the “Array Heatmap value” value (PHF2; PHF2, sheet "Array Heatmap", each array performed twice) was 0.4084 and the “Array Heatmap value” value (MLL5; MLL5, sheet "Array Heatmap", each array performed twice) was 0.5655. For the same substance, the “Array Heatmap value” value (ING1; ING1, sheet "Array Heatmap", each array performed twice) was 0.5268, the “Array Heatmap value” value (ING2; ING2, sheet "Array Heatmap", each array performed twice) was 0.6127 and the “Array Heatmap value” value (KDM5B (1); KDM5B (1), sheet "Array Heatmap", each array performed twice) was 0.7307. The “Array Heatmap value” value (CHD5 (PCC); CHD5 (PCC), sheet "Array Heatmap", each array performed twice) was 0.7075, the “Array Heatmap value” value (PHF21A; PHF21A, sheet "Array Heatmap", each array performed twice) was 0.434 and the “Array Heatmap value” value (CHD4 (PPCC); CHD4 (PPCC), sheet "Array Heatmap", each array performed twice) was 0.5307. For the same substance, the “Array Heatmap value” value (SP140L; SP140L, sheet "Array Heatmap", each array performed twice) was 0.3664, the “Array Heatmap value” value (DIDO1; DIDO1, sheet "Array Heatmap", each array performed twice) was 0.6775 and the “Array Heatmap value” value (KDM7A; KDM7A, sheet "Array Heatmap", each array performed twice) was 0.3927. The “Array Heatmap value” value (RAG2; RAG2, sheet "Array Heatmap", each array performed twice) was 0.2621, the “Array Heatmap value” value (DPF2 (PPC2W2); DPF2 (PPC2W2), sheet "Array Heatmap", each array performed twice) was 0.7444 and the “Array Heatmap value” value (KDM4C (TTP); KDM4C (TTP), sheet "Array Heatmap", each array performed twice) was 0.505. For the same substance, the “Array Heatmap value” value (PHF23; PHF23, sheet "Array Heatmap", each array performed twice) was 0.5317, the “Array Heatmap value” value (ING3; ING3, sheet "Array Heatmap", each array performed twice) was 0.4519 and the “Array Heatmap value” value (MORC3 (CW); MORC3 (CW), sheet "Array Heatmap", each array performed twice) was 0.4635. The “Array Heatmap value” value (CHD5 (PPCC); CHD5 (PPCC), sheet "Array Heatmap", each array performed twice) was 0.5424, the “Array Heatmap value” value (PHF8; PHF8, sheet "Array Heatmap", each array performed twice) was 0.3597 and the “Array Heatmap value” value (ING5; ING5, sheet "Array Heatmap", each array performed twice) was 0.3576. The “Array Heatmap value” value (KDM5A (1); KDM5A (1), sheet "Array Heatmap", each array performed twice) was 0.4813.

In the case of H3K18ac: H3 1-20 [Peptide H3K18ac], the “Array Heatmap signal (histone peptide microarray)” value (KDM5B (3); GST-tagged KDM5B (3), sheet Array Heatmap, each array performed twice) is reported as 0.5801, the “Array Heatmap signal (histone peptide microarray)” value (TAF3; GST-tagged TAF3, sheet Array Heatmap, each array performed twice) is reported as 0.3122 and the “Array Heatmap signal (histone peptide microarray)” value (TRIM66 (PB); GST-tagged TRIM66 (PB = PHD + Bromodomain), sheet Array Heatmap, each array performed twice) is reported as 0.7719. For the same substance, the “Array Heatmap signal (histone peptide microarray)” value (PHF13; GST-tagged PHF13, sheet Array Heatmap, each array performed twice) was 0.6049, the “Array Heatmap signal (histone peptide microarray)” value (AIRE (PP); GST-tagged AIRE (PP), sheet Array Heatmap, each array performed twice) was 0.6319 and the “Array Heatmap signal (histone peptide microarray)” value (ING4; GST-tagged ING4, sheet Array Heatmap, each array performed twice) was 0.4378. For the same substance, the “Array Heatmap signal (histone peptide microarray)” value (KDM5A (3); GST-tagged KDM5A (3), sheet Array Heatmap, each array performed twice) was 0.7024, the “Array Heatmap signal (histone peptide microarray)” value (BPTF (PB); GST-tagged BPTF (PB = PHD + Bromodomain), sheet Array Heatmap, each array performed twice) was 0.3398 and the “Array Heatmap signal (histone peptide microarray)” value (BAZ2B; GST-tagged BAZ2B, sheet Array Heatmap, each array performed twice) was 0.4617. For the same substance, the “Array Heatmap signal (histone peptide microarray)” value (PHRF1 (RP); GST-tagged PHRF1 (RP), sheet Array Heatmap, each array performed twice) was 0.9005, the “Array Heatmap signal (histone peptide microarray)” value (PHF2; GST-tagged PHF2, sheet Array Heatmap, each array performed twice) was 0.5028 and the “Array Heatmap signal (histone peptide microarray)” value (MLL5; GST-tagged MLL5, sheet Array Heatmap, each array performed twice) was 0.5221. The “Array Heatmap signal (histone peptide microarray)” value (ING1; GST-tagged ING1, sheet Array Heatmap, each array performed twice) was 0.5131, the “Array Heatmap signal (histone peptide microarray)” value (ING2; GST-tagged ING2, sheet Array Heatmap, each array performed twice) was 0.5886 and the “Array Heatmap signal (histone peptide microarray)” value (KDM5B (1); GST-tagged KDM5B (1), sheet Array Heatmap, each array performed twice) was 0.7147. For the same substance, the “Array Heatmap signal (histone peptide microarray)” value (CHD5 (PCC); GST-tagged CHD5 (PCC = PHD + Dual Chromodomain), sheet Array Heatmap, each array performed twice) was 0.8176, the “Array Heatmap signal (histone peptide microarray)” value (PHF21A; GST-tagged PHF21A, sheet Array Heatmap, each array performed twice) was 0.4738 and the “Array Heatmap signal (histone peptide microarray)” value (CHD4 (PPCC); GST-tagged CHD4 (PPCC = Dual PHD + Dual Chromodomain), sheet Array Heatmap, each array performed twice) was 0.5741. For the same substance, the “Array Heatmap signal (histone peptide microarray)” value (SP140L; GST-tagged SP140L, sheet Array Heatmap, each array performed twice) was 0.3771, the “Array Heatmap signal (histone peptide microarray)” value (DIDO1; GST-tagged DIDO1, sheet Array Heatmap, each array performed twice) was 0.6541 and the “Array Heatmap signal (histone peptide microarray)” value (KDM7A; GST-tagged KDM7A, sheet Array Heatmap, each array performed twice) was 0.36. For the same substance, the “Array Heatmap signal (histone peptide microarray)” value (RAG2; GST-tagged RAG2, sheet Array Heatmap, each array performed twice) was 0.2722, the “Array Heatmap signal (histone peptide microarray)” value (DPF2 (PPC2W2); GST-tagged DPF2 (PPC2W2 = Dual PHD + C2W2-type Zn-finger), sheet Array Heatmap, each array performed twice) was 0.8135 and the “Array Heatmap signal (histone peptide microarray)” value (KDM4C (TTP); GST-tagged KDM4C (TTP = Tandem Tudor domain + PHD), sheet Array Heatmap, each array performed twice) was 0.5068. For the same substance, the “Array Heatmap signal (histone peptide microarray)” value (PHF23; GST-tagged PHF23, sheet Array Heatmap, each array performed twice) was 0.5309, the “Array Heatmap signal (histone peptide microarray)” value (ING3; GST-tagged ING3, sheet Array Heatmap, each array performed twice) was 0.4594 and the “Array Heatmap signal (histone peptide microarray)” value (MORC3 (CW); GST-tagged MORC3 (CW = CW-type Zn-finger), sheet Array Heatmap, each array performed twice) was 0.6663. For the same substance, the “Array Heatmap signal (histone peptide microarray)” value (CHD5 (PPCC); GST-tagged CHD5 (PPCC = Dual PHD + Dual Chromodomain), sheet Array Heatmap, each array performed twice) was 0.5749, the “Array Heatmap signal (histone peptide microarray)” value (PHF8; GST-tagged PHF8, sheet Array Heatmap, each array performed twice) was 0.3469 and the “Array Heatmap signal (histone peptide microarray)” value (ING5; GST-tagged ING5, sheet Array Heatmap, each array performed twice) was 0.3604. The “Array Heatmap signal (histone peptide microarray)” value (KDM5A (1); GST-tagged KDM5A (1), sheet Array Heatmap, each array performed twice) was 0.495.
